We go through 15 substances from patent publication US7928186B2, “Cell permeable bioactive peptide conjugates” (Phoenix Pharmaceuticals, Inc., priority 2006, dated 2011).

Bridge positions count the residues as written; N and C are the ends. Ends that are not written are not given here. * marks the point of attachment. Acm = CC(=O)NC*

The test system of assay [1] is rat medulla oblongata (NTS, RVLM). As to conditions: cited from earlier work.
Assay [2] deals with dissociate and cultured cortical neurons. In words: Mobilization of intracellular Ca2+ in dissociate cultured cortical neurons (Fura-2 AM fluorescence). The format is cell-based, rat (newborn Sprague-Dawley). The source says:
Neurons can be isolated from cerebral cortex according to the protocols for postnatal dissociated nuerons as disclosed for example by Huettner, J. E. and Baughman, R. W., Primary Culture of Identified Neurons From the Visual Cortex of Postnatal Rats, Journal of Neurosciences 6; 3044-3060 (1986); Brewer, G. J., Isolation and Culture of Adult Rat Hippocampal Neurons, Journal of Neuroscience Methods, 71:143-155 (1997); and Brailoiu et al., NAADP Potentiates Neurite Outgrowth, Journal of Biological Chemistry (in press), each hereby incorporated by reference. Newborn Sprague-Dawley rates (about 1 day to about 4 days old) were killed by cervical dislocation. Cerebral cortex was removed and quickly immersed in ice-cold phosphate buffer solution. After removal of meninges, tissue was minced into about I-millimeter blocks, incubated for about 45 minutes at 37° C. in Hanks balanced salt solution without Ca^2+ and Mg^2+ (Invitrogen, 1600 Faraday Avenue, Carlsbad, Calif. 92008) and supplemented with about 200 ug/mL penicillin, 0.1% EDTA and papain 0.15 mg/mL (Sigma-Aldrich, St. Louis, Mo.). In accordance with the procedure disclosed by Brewer, the tissue can be further dissociated by gentle mechanical trituration. After centrifugation at 500×g, cells can be re-suspended in fetal serum free media containing Neurobasal-ATM medium supplemented with […], 100 unites penicillin, 100 ug streptomycin, and B27 supplement all of which can be obtained for example from Invitrogen. The resulting cells can be plated at a low density of about 10^4 on round glass coverslips in twenty four well plates. Neurons were cultured at 37° C. in […] and 5% carbon dioxide for about 3 days to about 5 days. The mitotic inhibitor, cytosine P-arabino furanosidde (about 1 μM) which can be obtained from Sigma-Aldrich can be added to cultured neurons to inhibit glial cell proliferation according to the procedure disclosed by Billingsley, M. L. and Mandel, H. G., Effects of DNA Synthesis Inhibitors on Post-Traumatic Glial Cell Proliferation, Journal of Pharmacology and Experimental Therapeutics, 222: 765-770 (1982).
Measurement of mobilized intracellular calcium ion (Ca^2+) in dissociate cultured neurons in response to peptide fragments of HIV-1 Tat polypeptides can be performed as disclosed by Brailoiu E. et al. Neurons cultured about 24 hours on coverslips as above-described were loaded in HBBS with 5μ Fura-2 AM dye at room temperature (about 20° C.) for about 45 minutes in the dark, then washed three times with Fura-2 AM free buffer and allowed to incubate to allow de-esterification of the dye for about 45 minutes. Under these conditions, compartmentalization of the dye was minimal (about 9.2%±0.2% n=6) as judged from the ratio of fluorescence signals after selective permeabilization of the plasma membrane (10 μM β-escein) and full permeabilization of the cultured cells (60 μg/mL saponin). The coverslips were mounted in a custom designed bath on the stage of a S300 Axiovert […] inverted microscope equipped with a C&L Instruments fluorimeter as described by Brailoiu et al. The Fura-2 fluorescent signal was calibrated by successive addition of 20 μg/mL digitonin, 20 mM EDTA, and 0.5 mM MnCl2.
Table 1. Effect of HIV1-Tat Polypeptides on [Ca^2+] Response in Dissociate and Cultured Cortical Neurons

The test system of the next assay is humans. The note with it: infusion of normal postprandial concentrations, over 24 h; cited from earlier work.

“Apelin: endogenous ligands at the orphan G-protein coupled receptor, APJ (QRPRLSHKGPMPF; Apelin-13; UniProt Q9ULZ1 65-77, looked up)”: the “increase in arterial pressure” value in assay [1] (microinjection into either of the NTS and the RVLM) was 10-20 mm Hg. The “decreased phrenic nerve discharge amplitude” value in assay [1] (microinjection into the NTS) is recorded as “up to 30%”.
As to “HIV1 30-47 (Cys30-Cys34)(Cys31-Cys37) (CCFHCQVCFITKALGISY; disulfide 1-5, 2-8) [HIV1 30-47 (Cys 30-Cys34)(Cys 31-Cys37), HIV1 Tat fragment which lacks the second transport peptide region]”, the “[Ca^2+] response” value is “No Response” in assay [2] (n = 5-10 in a column of its own, listed as 30-47 (Cys 30-Cys34)(Cys 31-Cys37)) and “cannot mobilize intracellular calcium ion” in assay [2] (n = 5-10 in a column of its own, listed as HIV1 30-47 (Cys30-Cys34)(Cys31-Cys37)).
As for “HIV1 30-57 (Cys30-Cys31)(Cys 34-Cys37) (CCFHCQVCFITKALGISYGRKKRRQRRR; disulfide 1-2, 5-8) [HIV1 30-57 (Cys30-Cys31)(Cys34-Cys37)]”, in assay [2] (n = 5-10), the “[Ca^2+] response” value turned out to be 258 ± 54 nM.
As to “HIV1 30-57 (Cys30-Cys34)(Cys 31-Cys37) (CCFHCQVCFITKALGISYGRKKRRQRRR; disulfide 1-5, 2-8) [HIV1 30-57 (Cys30-Cys34)(Cys31-Cys37)]”, the “[Ca^2+] response” value in assay [2] (n = 5-10) is given as 528 ± 60 nM.
For “HIV1 30-57 (Cys30-Cys37)(Cys 31-Cys34) (CCFHCQVCFITKALGISYGRKKRRQRRR; disulfide 1-8, 2-5) [HIV1 30-57 (Cys30-Cys37)(Cys31-Cys34), 14]”, the “[Ca^2+] response” value in assay [2] (n = 5-10) stood at 197 ± 46 nM.
Same read-out and setting: the figure for “HIV1 30-57 (Cys31-Cys37)(Cys 31-ACM)(Cys34-ACM) (C(Acm)CFHC(Acm)QVCFITKALGISYGRKKRRQRRR; disulfide 2-8) [HIV1 30-48 (Cys 30 ACM)(Cys 31-Cys 37 disulfide)(Cys 34 ACM) with transport region HIV1 49-57]” is 197 ± 35 nM.
On the same count and under the same terms, the figure for “HIV1 30-86 (Cys30-Cys34)(Cys31-Cys37) (CCFHCQVCFITKALGISYGRKKRRQRRRAHQNSQTHQASLSKQPTSQPRGDPTGPKE; disulfide 1-5, 2-8)” is 390 ± 21 nM; for “HIV1 32-62 (Cys34-Cys37): HIV1 Tat polypeptide fragment 32-62 with Cys34-Cys37 disulfide (FHCQVCFITKALGISYGRKKRRQRRRAHQNS; disulfide 3-6)” it is 752 ± 59 nM; for “HIV1 41-60 (KALGISYGRKKRRQRRRAHQ; Human immunodeficiency virus type 1) [peptide fragment of the HIV1 30-86 peptide]” it is 66 ± 13 nM.
Consider “HIV1 48-84 (GRKKRRQRRRAHQNSQTHQASLSKQPTSQPRGDPTGP; Human immunodeficiency virus type 1) [peptide fragment of the HIV1 30-86 peptide]”, for which the “[Ca^2+] response” value in assay [2] (n = 5-10) turned out to be 80 ± 28 nM.
On the same count and under the same terms, as for “HIV1 58-86 (AHQNSQTHQASLSKQPTSQPRGDPTGPKE; Human immunodeficiency virus type 1) [peptide fragment of the C-terminal region of the HIV1 30-86 peptide]”, the figure is 54 ± 28 nM; as for “HIV1 61-80 (NSQTHQASLSKQPTSQPRGD; Human immunodeficiency virus type 1) [peptide fragment of the C-terminal region of the HIV1 30-86 peptide]”, 56 ± 20 nM.
For the substance “HIV1 62-86 (SQTHQASLSKQPTSQPRGDPTGPKE; Human immunodeficiency virus type 1) [peptide fragment of the C-terminal region of the HIV1 30-86 peptide]”, the “[Ca^2+] response” value in assay [2] (n = 5-10) is reported as “No Response”.
Turning to Peptide YY(3-36) [PYY(3-36)], the “reduction of food intake” value in the assay with humans was 33%.
As for “RKKRRQRRR (Human immunodeficiency virus type 1) [HIV1 49-57, Tat transduction domain, transport peptide region alone]”, in assay [2] (n = 5-10), the “[Ca^2+] response” value was “No Response”.
